The text below walks through data of publication PMC11740271 (Annals of neurology, 2024).

For data set [1], the system named is GLT-1. In words: GLT-1 expression in mouse cortex. The class given is in vivo. The settings on record: C57BL/6 mice.
Data set [2] concerns GLT-1. The data set is described as follows: GLT-1 expression in mouse hippocampus. The settings on record: C57BL/6J mice. Type of data set: in vivo.
For another data set, the system named is TMEV-induced seizures. The note with it: mice; doses as in Table S14; cited from earlier work.
Data set [3] concerns 6 Hz (44 mA) seizures. The settings on record: mice, i.p.; from literature ED50/TD50, ref as in Table S11; cited from earlier work.
Data set [4] has as its system GLT-1. In words: GLT-1 expression in neuron-glia cultures. The settings on record: 14 DIV neuron-glia cultures, 72 h. The class given is cell-based, rat.
In data set [5] the test system is corneal kindled seizures. The settings on record: mice, i.p.; from literature ED50/TD50, ref as in Table S11; cited from earlier work.
For data set [6], the system named is minimal motor impairment (ataxia). In words: Minimal motor impairment. The class given is in vivo, rats. The settings on record: i.p.
A further data set can be described thus: Minimal motor impairment. The class given is in vivo, rats. The note with it: Sprague-Dawley, rat, in vivo, ip.
The subject of data set [7] is hippocampal paroxysmal discharges (HPDs). The data set is described as follows: Intra-hippocampal kainate mouse. The class given is in vivo. The settings on record: male mice, 50 mg/kg i.p., 1 h post-drug, mean ± SEM.
Data set [8] deals with corneal kindled seizures. In words: Corneal kindled mouse model. The class given is in vivo, mice. The settings on record: ip, read-out: ED50, CKM.
Another data set relates to EAAT1. The note with it: cited from earlier work.
Data set [9] has as its system 6 Hz (44 mA) seizures. The data set is described as follows: 6 Hz. Type of data set: in vivo, mice. The note with it: Mus musculus, ip, 1 h, read-out: ED50, 6 Hz (44 mA).
Data set [10] concerns autonomic, neuromuscular, sensorimotor and behavioral functions. In words: Modified Irwin test in rats. The class given is in vivo. The note with it: male rats, i.p.
The test system of data set [11] is motor function and coordination. The data set is described as follows: Rotarod test in mice. The settings on record: male mice (C57BL/6J), i.p., PT 0.5 h; 95% CI in parentheses. Type of data set: in vivo. A general note: Falling from the rotarod earlier than controls is read as motor impairment.
The test system of a further data set is EAAT3. The settings on record: cited from earlier work.

Several values for one entry are separate records, joined by “and”; a condition that tells them apart may be missing. Equal entries are not always repeated. Where two headings read alike, the source gives them in different places.

As for `CN(C)CCC=C1c2ccccc2CCc2ccccc21` [amitriptyline, reference compound], in the data set with GLT-1 [1] (10 mg/kg i.p. for 7 days, P < 0.05), the “GLT-1 protein expression in brain lysates (quantitative Western blot)” value is “significant increase”. For the same compound, in the data set with GLT-1 [2] (10 mg/kg i.p. QD for 7 days), the “GLT-1 signal in the hippocampus (qualitative confocal microscopy)” value is recorded as “strong increase”.
With `CCCC(CCC)C(=O)O` [Valproate], the “effect in the TMEV model” value with TMEV-induced seizures is given as “significantly reduced seizure burden”.
On to `Cc1ccsc1C(=CCCN1CCC[C@@H](C(=O)O)C1)c1sccc1C` [Tiagabine], for which the “effect in the TMEV model” value in the data set on TMEV-induced seizures was “significantly reduced seizure burden”. In addition, in the data set with 6 Hz (44 mA) seizures [3], the “PI, 6 Hz, 44 mA (reference ASMs)” value is 6.
Consider `COC[C@@H](NC(C)=O)C(=O)NCc1ccccc1` [Lacosamide], for which, in the data set on TMEV-induced seizures, the “effect in the TMEV model” value was “significantly reduced seizure burden”.
For the compound `CO/N=C(\C(=O)N[C@@H]1C(=O)N2C(C(=O)O)=C(CSc3nc(=O)c(=O)[nH]n3C)CS[C@H]12)c1csc(N)n1` [ceftriaxone, reference compound], the “GLT-1 protein expression (Western blotting)” value in the data set with GLT-1 [4] (1 mM) is “significantly increased”.
Regarding `CCOC(=O)Nc1ccc(NCc2ccc(F)cc2)cc1N` [Ezogabine], the “PI, CKM (reference ASMs)” value with corneal kindled seizures [5] was 1.5.
`C=C(C)[C@@H]1CCC(C)=C[C@H]1c1c(O)cc(CCCCC)cc1O` [Cannabidiol]: in the data set with TMEV-induced seizures, the “effect in the TMEV model” value is reported as “effectively reduced TMEV-induced seizures”.
`CC[C@@H](C(N)=O)N1CCCC1=O` [Levetiracetam]: the “effect in the TMEV model” value in the data set with TMEV-induced seizures is on record as “significantly reduced seizure burden”.
On to `NC(=O)N1c2ccccc2C=Cc2ccccc21` [Carbamazepine], for which the “effect in the TMEV model” value with TMEV-induced seizures was “ineffective”.
A word on the TD50: it is the 50% point of the dose-response relation for the toxic effect studied. In general, ED50 refers to the dose at which the effect has come halfway, by size or by number of responders. For the compound `C[C@H](C(=O)NCc1ccccc1)N1C(=O)CCC1=O` [(R)-AS-1, (R)-N-benzyl-2-(2,5-dioxopyrrolidin-1-yl)propanamide], the “N/F with adverse effects, TOX (MMI)” value is recorded as 2/8 in data set [6] (female rats, 500 mg/kg, […]); 1/8 in [6] (male rats, 300 mg/kg, 1 h); 1/8 in data set [6] (male rats, 300 mg/kg, […]). In addition, in data set [6] (female rats, 500 mg/kg, […]), the “abnormal gait, animals affected / tested” value is recorded as 3/8. Besides, in data set [6] (female rats, 500 mg/kg, […]), the “tremors, animals affected / tested” value was 6/8. Also, in [6] (female rats, 500 mg/kg, at 0.5 h and 1 h), the “slight ataxia, share of rats” value came out at 12.5%. This compound yielded a TD50 at […] in “Minimal motor impairment” (female) greater than 500 mg/kg. This compound yielded a TD50 at 0.5 h in the data set “Minimal motor impairment” (male) of 254 mg/kg. Besides, the “HPD count as percent of baseline (peak effect)” value in data set [7] was 52.81 ± 13.45% and ~ 50%. The ED50 in the data set with corneal kindled seizures [8] (1 h) was 38.2 mg/kg; with corneal kindled seizures [8] ([…]) it was 40.5 mg/kg; with 6 Hz (44 mA) seizures [9], 65.9 mg/kg. Besides, the “interaction with EAAT1” value in the data set on EAAT1 is recorded as “does not interact”. The “adverse events at later time points (Irwin test)” value in data set [10] (300 mg/kg, 2, 4, and 24 h) was “no adverse events”. Further, the “staggering, share of rats (Irwin test)” value in [10] (300 mg/kg, 0.5 h, 1/4) worked out at 25%; in [10] (300 mg/kg, 1 h, 2/4) it was 50%. Besides, the “ataxia, share of rats (Irwin test)” value in data set [10] (300 mg/kg, 0.5 h, 2/4) is 50%; in data set [10] (300 mg/kg, 1 h, 1/4), 25%. In addition, in data set [10] (300 mg/kg, […], 2 rats out of 4), the “anesthesia, share of rats (Irwin test)” value was found to be 50%. In addition, the “tolerability in the Irwin test” value in [10] (doses of 100, 150, and 250 mg/kg, all time points) is given as “very well tolerated”. In addition, in the data set on GLT-1 [1] (100 mg/kg i.p. BID for 7 days), the “GLT-1 protein expression in brain lysates (quantitative Western blot)” value is on record as “did not show any alteration”. For the same compound, in the data set with GLT-1 [4] (100 nM and 100 μM), the “GLT-1 protein expression (Western blotting)” value is recorded as “did not alter”. The “TD50, rotarod test” value in [11] is 168.2 (117.4–242.0) mg/kg. Further, the “interaction with EAAT3” value with EAAT3 is reported as “does not interact”. Further, the “GLT-1 expression in the hippocampus (qualitative confocal microscopy)” value in the data set on GLT-1 [2] (100 mg/kg i.p. BID for 7 days) is recorded as “did not alter”.
With `Nc1nnc(-c2cccc(Cl)c2Cl)c(N)n1` [Lamotrigine], the “PI, CKM (reference ASMs)” value in the data set on corneal kindled seizures [5] is 1.0. In addition, the “effect in the TMEV model” value with TMEV-induced seizures is listed as “ineffective”.
